Consider 6 compounds from BindingDB's records for patent US20230414632 (Centre National De La Recherche Scientifique, 2023).

In the experiment the target is Lysine--tRNA ligase (Homo sapiens, UniProt Q15046). The experiment is described as follows: Homogeneous Time-Resolved Fluorescence Assay. As for the experimental part: Homogeneous time-resolved fluorescence (HTRF) assays were performed in black, half-area, flat bottom, 96-well microplates (Costar #3694). Human mitochondrial LysRS with a C-terminal HA-tag (mLysRS-HA), diluted in HTRF buffer (10 mM Tris-HCl pH 7.5, 50 mM NaCl, 10 mM 2-mercaptoethanol, BSA at 1 mg/ml) was added (20 μl at a dimer concentration of 3.75 nM) in the wells of microplates placed on ice. Compounds of formula I or II (1 μl of a 10 mM solution in DMSO) were then added to the wells, and mixing was achieved by pipetting up and down 3-times 10 μl. After centrifugation at 900 g for 1 min at 4° C., plates were placed at 4° C. on thermal modules of an epMotion 5075 v automated pipetting system (Eppendorf). A 10 μl sample of IN-H6 diluted in HTRF buffer at a dimer concentration of 250 nM was added and mixing was achieved by pipetting up and down 3-times 15 μl. Incubation was conducted at 4° C. for 1 h. A 10 μl aliquot of a mix of antibodies prepared in HTRF buffer, directed to the His-tag, conjugated with Eu3+ cryptate (Cisbio #61HISKLB, 0.125 μl per test, prepared as recommended by the supplier), and to the HA-tag, conjugated with XL665 (Cisbio #610HAXLB, 0.375 μl per test, prepared as recommended by the supplier), was added and mixing was achieved by pipetting up and down 3-times 15 μl. Incubation was conducted at 4° C. for 30 min.
Chain of Lysine--tRNA ligase (Q15046 whole entry): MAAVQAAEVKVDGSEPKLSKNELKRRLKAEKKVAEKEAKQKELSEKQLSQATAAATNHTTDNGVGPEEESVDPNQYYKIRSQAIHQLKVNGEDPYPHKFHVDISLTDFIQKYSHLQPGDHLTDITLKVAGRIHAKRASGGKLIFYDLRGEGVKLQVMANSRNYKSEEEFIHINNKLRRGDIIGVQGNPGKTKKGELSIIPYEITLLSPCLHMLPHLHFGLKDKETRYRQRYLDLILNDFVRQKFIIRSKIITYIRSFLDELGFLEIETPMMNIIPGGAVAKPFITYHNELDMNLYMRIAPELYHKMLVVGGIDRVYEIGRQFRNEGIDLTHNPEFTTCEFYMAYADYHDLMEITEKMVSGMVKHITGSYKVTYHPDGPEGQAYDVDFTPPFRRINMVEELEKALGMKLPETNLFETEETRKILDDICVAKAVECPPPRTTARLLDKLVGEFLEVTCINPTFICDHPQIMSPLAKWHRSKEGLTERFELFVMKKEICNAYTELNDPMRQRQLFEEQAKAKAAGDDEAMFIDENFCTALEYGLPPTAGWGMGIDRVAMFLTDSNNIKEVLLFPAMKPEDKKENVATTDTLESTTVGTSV

What is called IC50 is the concentration at which inhibition is half-maximal. Low readings indicate greater potency in that assay, high ones weaker potency in that assay. `COC(=O)C1=C(C)NC(C)=C(C(=O)OCC(C)C)C1c1ccccc1[N+](=O)[O-]` (stereo unspecified) [US20230414632, Compound I-e] displayed an IC50 of 450 µM.

As for `COC(=O)C1=C(C)NC(C)=C(C(=O)OCCN2CCN(C(c3ccccc3)c3ccccc3)CC2)C1c1cccc([N+](=O)[O-])c1` (stereo unspecified) [US20230414632, Compound I-g], the concentration for half-maximal inhibition (IC50) was 400 µM.

`COC(=O)C1=C(C)NC(C)=C(C(=O)OC2CCCN(Cc3ccccc3)C2)C1c1cccc([N+](=O)[O-])c1` (stereo unspecified) [US20230414632, Compound I-f] yielded an IC50 of 450 µM. This IC50 and that of the compound before are within 1.5-fold of each other. The same measure for `COCCOC(=O)C1=C(C)NC(C)=C(C(=O)OC/C=C/c2ccccc2)C1c1cccc([N+](=O)[O-])c1` (stereo unspecified) [US20230414632, Compound I-b]: 400 µM; for `COC(=O)C1=C(C)NC(C)=C(C(=O)OC(C)(C)CN(C)CCC(c2ccccc2)c2ccccc2)C1c1cccc([N+](=O)[O-])c1` (stereo unspecified) [US20230414632, Compound I-c]: 320 µM; for `CCOC(=O)C1=C(C)NC(C)=C(C(=O)OCC)C1c1ccccc1/C=C/C(=O)OC(C)(C)C` [US20230414632, Compound I-a]: 65 µM.
